In US12495798B2, “Nicotinamide compound and herbicidal composition comprising compound” (KOREA RESEARCH INSTITUTE OF CHEMICAL TECHNOLOGY, priority 2019, dated 2025):

Experiments:
Assay type in all cases: in vivo
quack grass = assay: Herbicidal activity test against upland field weeds (foliar treatment test); design: key to Foliar treatment herbicidal activity, quack grass: 0 (no control); 100 (complete control); settings: 50 g ai/ha, scale 0-100
Summary of the method: (§1)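 Visual 0–100 control ratings relative to untreated plants, taken 14 (or 21) days after spraying foliage at 50 or 75 g a.i./ha. Spray solution: 50% acetone with 0.1% Tween-20; plants kept in greenhouse at 30±5 °C, 14 h light/10 h dark.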

crabgrass [1] = assay: as above; settings: Digitaria sanguinalis, 50 g ai/ha, scale 0-100
Summary of the method: as §1

velvetleaf = assay: as above; settings: Abutilon theophrasti, 50 g ai/ha, scale 0-100, read-out: Foliar treatment herbicidal activity, velvet leaf
Summary of the method: as §1

bindweed [2] = assay: as above; settings: 50 g ai/ha, scale 0-100
Summary of the method: as §1

barnyard grass = assay: Herbicidal activity test against upland field weeds (soil treatment test); design: key to Soil treatment herbicidal activity, barnyard grass: 0 (no control); 100 (complete control); settings: 50 g ai/ha, scale 0 (no control) to 100 (complete control); for pest or weed control at 50 g/ha: Echinochloa crus-galli
Summary of the method: (§2)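 Weed control scored visually on a 0 (none) to 100 (complete) scale versus untreated pots at 14 or 21 days in greenhouse (30±5 °C, 14 h light). Test compounds, 50 or 75 g a.i./ha in 50% acetone/0.1% Tween-20, hand-sprayed onto soil one day post-sowing.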

crabgrass [3] = assay: as above; design: key to Soil treatment herbicidal activity, Crabgrass: 0 (no control); 100 (complete control); settings: 50 g ai/ha, scale 0 (no control) to 100 (complete control); for pest or weed control at 50 g/ha: Digitaria sanguinalis
Summary of the method: as §2

indian jointvetch = assay: as above; design: key to Soil treatment herbicidal activity, Indian jointvetch: 0 (no control); 100 (complete control); settings: 50 g ai/ha, scale 0 (no control) to 100 (complete control)
Summary of the method: as §2

bindweed [4] = assay: as above; design: key to Soil treatment herbicidal activity, Bindweed: 0 (no control); 100 (complete control); settings: 50 g ai/ha, scale 0 (no control) to 100 (complete control)
Summary of the method: as §2

corn = assay: Phytotoxicity test for field crops (soil treatment test); design: key: 0 (no harm); 9 (complete withered)
Summary of the method: (§3)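 Seeds went into sterilized horticultural soil mixed with N:P:K 17:21:17 fertilizer. The next day the soil surface received a spray of compound in acetone/Tween-20 diluent delivering 19˜300 g a.i./ha. After 10 and 20 days under greenhouse conditions, injury was rated by eye from 0 to 9 against untreated pots.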

cotton = assay: as above; design: key: 0 (no harm); 9 (complete withered)
Summary of the method: as §3

rice = assay: as above; design: key: 0 (no harm); 9 (complete withered)
Summary of the method: as §3

soybean = assay: as above; design: key: 0 (no harm); 9 (complete withered)
Summary of the method: as §3

wheat = assay: as above; design: key: 0 (no harm); 9 (complete withered)
Summary of the method: as §3

[5] = 50 g ai/ha, Corn (10 days after treatment)
[6] = 50 g ai/ha, Corn (20 days after treatment)
[7] = 100 g ai/ha, Corn (10 days after treatment)
[8] = 100 g ai/ha, Corn (20 days after treatment)
[9] = 50 g ai/ha, Cotton (10 days after treatment)
[10] = 50 g ai/ha, Cotton (20 days after treatment)
[11] = 100 g ai/ha, Cotton (10 days after treatment)
[12] = 100 g ai/ha, Cotton (20 days after treatment)
[13] = 50 g ai/ha, Rice (10 days after treatment)
[14] = 50 g ai/ha, Rice (20 days after treatment)
[15] = 100 g ai/ha, Rice (10 days after treatment)
[16] = 100 g ai/ha, Rice (20 days after treatment)
[17] = 50 g ai/ha, Soybean (10 days after treatment)
[18] = 50 g ai/ha, Soybean (20 days after treatment)
[19] = 100 g ai/ha, Soybean (10 days after treatment)
[20] = 100 g ai/ha, Soybean (20 days after treatment)
[21] = 50 g ai/ha, Wheat (10 days after treatment)
[22] = 50 g ai/ha, Wheat (20 days after treatment)
[23] = 100 g ai/ha, Wheat (10 days after treatment)
[24] = 100 g ai/ha, Wheat (20 days after treatment)

SMILES	Foliar treatment herbicidal activity, quack grass (quack grass)	pest or weed control at 50 g/ha (crabgrass [1]) [%]	pest or weed control at 50 g/ha (velvetleaf) [%]	pest or weed control at 50 g/ha (bindweed [2]) [%]	pest or weed control at 50 g/ha (indian jointvetch) [%]	pest or weed control at 50 g/ha (bindweed [4]) [%]	Soil treatment phytotoxicity, Corn (corn; [5])	Soil treatment phytotoxicity, Corn (corn; [6])	Soil treatment phytotoxicity, Corn (corn; [7])	Soil treatment phytotoxicity, Corn (corn; [8])	Soil treatment phytotoxicity, Cotton (cotton; [9])	Soil treatment phytotoxicity, Cotton (cotton; [10])	Soil treatment phytotoxicity, Cotton (cotton; [11])	Soil treatment phytotoxicity, Cotton (cotton; [12])	Soil treatment phytotoxicity, Rice (rice; [13])	Soil treatment phytotoxicity, Rice (rice; [14])	Soil treatment phytotoxicity, Rice (rice; [15])	Soil treatment phytotoxicity, Soybean (soybean; [17])	Soil treatment phytotoxicity, Soybean (soybean; [18])	Soil treatment phytotoxicity, Wheat (wheat; [21])	further results
Cn1nnc(COCc2nc(C(F)(F)Cl)ccc2C(=O)Nc2nnnn2C)n1 [Compound No. 2-78, 6-(chlorodifluoromethyl)-N-(1-methyl-1H-tetrazol-5-yl)-2-(((2-methyl-2H-tetrazol-5-yl)methoxy)methyl)nicotinamide]	0	70	60	40	95	40	0	0	1	0	2	6.5	3	9	6	6	9	0	0	0	Soil treatment herbicidal activity, barnyard grass (barnyard grass): 100; Soil treatment herbicidal activity, Crabgrass (crabgrass [3]): 100; Soil treatment phytotoxicity, Rice (rice; [16]): 9; Soil treatment phytotoxicity, Soybean (soybean; [19]): 0; Soil treatment phytotoxicity, Soybean (soybean; [20]): 0; Soil treatment phytotoxicity, Wheat (wheat; [22]): 0; Soil treatment phytotoxicity, Wheat (wheat; [23]): 0; Soil treatment phytotoxicity, Wheat (wheat; [24]): 0
Cn1nnc(COCc2nc(C(F)F)ccc2C(=O)Nc2nnnn2C)n1 [Compound No. 2-84, 6-(difluoromethyl)-N-(1-methyl-1H-tetrazol-5-yl)-2-(((2-methyl-2H-tetrazol-5-yl)methoxy)methyl)nicotinamide]	0	95	98	60	98	40	0	0	1	0	0	6	3	7	5	3	6	0	0	0	pest or weed control at 50 g/ha (barnyard grass): 70%; pest or weed control at 50 g/ha (crabgrass [3]): 80%; Soil treatment phytotoxicity, Rice (rice; [16]): 7; Soil treatment phytotoxicity, Soybean (soybean; [19]): 0; Soil treatment phytotoxicity, Soybean (soybean; [20]): 0; Soil treatment phytotoxicity, Wheat (wheat; [22]): 0; Soil treatment phytotoxicity, Wheat (wheat; [23]): 0
Cn1nnc(COCc2nc(C(F)(F)F)ccc2C(=O)N(c2nnnn2C)S(C)(=O)=O)n1 [Compound No. 2-69, N-(1-methyl-1H-tetrazol-5-yl)-2-(((2-methyl-2H-tetrazol-5-yl)methoxy)methyl)-N-(methylsulfonyl)-6-(trifluoromethyl)nicotinamide]	0	70	80	40	–	70	0	0	–	–	1	5	–	–	7	8	–	0	0	0	pest or weed control at 50 g/ha (barnyard grass): 100%; pest or weed control at 50 g/ha (crabgrass [3]): 98%; Soil treatment herbicidal activity, Indian jointvetch (indian jointvetch): 100; Soil treatment phytotoxicity, Wheat (wheat; [22]): 1
Cn1ncnc1COCc1nc(C(F)(F)F)ccc1C(=O)Nc1nnnn1C [Compound No. 1-102, 2-(((1-methyl-1H-1,2,4-triazol-5-yl)methoxy)methyl)-N-(1-methyl-1H-tetrazol-5-yl)-6-(trifluoromethyl)nicotinamide]	0	70	80	60	20	–	0	0	0	0	0	0	1	2	5	5	5	0	0	0	pest or weed control at 50 g/ha (barnyard grass): 20%; pest or weed control at 50 g/ha (crabgrass [3]): 20%; Soil treatment herbicidal activity, Bindweed (bindweed [4]): 0; Soil treatment phytotoxicity, Rice (rice; [16]): 6; Soil treatment phytotoxicity, Soybean (soybean; [19]): 0; Soil treatment phytotoxicity, Soybean (soybean; [20]): 0; Soil treatment phytotoxicity, Wheat (wheat; [23]): 0; Soil treatment phytotoxicity, Wheat (wheat; [24]): 0
